# From patent US12404279B2, “Deubiquitinase inhibitors and methods of use thereof” (Molecure S.A., priority 2021, dated 2025)
# Counter-ions that a name gives are not always drawn.
# Target: full-length USP7 (Homo sapiens (Human), UniProt Q93009)
# Test: Enzymatic assay to determine IC50 of USP7 inhibitors (Ubiquitin-Rhodamine 110 cleavage)
# Assay type: biochemical
# Conditions: 0.5 nM USP7, 0.5 μM Ubiquitin-Rhodamine 110, 45 min at 37° C.
# Experimental: For the inhibitors disclosed herein, their potency was measured using the following method.
# A 45 μl reaction volume containing full-length USP7 (0.5 nM) in 50 mM HEPES pH 7.5, 150 mM NaCl, 1 mM DTT, 1 mg/ml BSA and 0.05% Tween20 was assembled in wells of 96 well half area black flat bottom plates. Test compounds were first dissolved to 25 mM stocks in DMSO and subsequently introduced to enzyme 15 min after USP7 incubation with DTT at room temperature. The enzymatic reaction was started by adding 0.5 μM Ubiquitin-Rhodamine 110 (final concentration) and allowed to proceed for 45 min at 37° C., 250 RPM shaking before Rhodamine fluorescence (485 nm excitation/520 nm emission) was measured using Tecan Spark M10 plate reader.
# Sequence of full-length USP7 (Q93009 whole entry): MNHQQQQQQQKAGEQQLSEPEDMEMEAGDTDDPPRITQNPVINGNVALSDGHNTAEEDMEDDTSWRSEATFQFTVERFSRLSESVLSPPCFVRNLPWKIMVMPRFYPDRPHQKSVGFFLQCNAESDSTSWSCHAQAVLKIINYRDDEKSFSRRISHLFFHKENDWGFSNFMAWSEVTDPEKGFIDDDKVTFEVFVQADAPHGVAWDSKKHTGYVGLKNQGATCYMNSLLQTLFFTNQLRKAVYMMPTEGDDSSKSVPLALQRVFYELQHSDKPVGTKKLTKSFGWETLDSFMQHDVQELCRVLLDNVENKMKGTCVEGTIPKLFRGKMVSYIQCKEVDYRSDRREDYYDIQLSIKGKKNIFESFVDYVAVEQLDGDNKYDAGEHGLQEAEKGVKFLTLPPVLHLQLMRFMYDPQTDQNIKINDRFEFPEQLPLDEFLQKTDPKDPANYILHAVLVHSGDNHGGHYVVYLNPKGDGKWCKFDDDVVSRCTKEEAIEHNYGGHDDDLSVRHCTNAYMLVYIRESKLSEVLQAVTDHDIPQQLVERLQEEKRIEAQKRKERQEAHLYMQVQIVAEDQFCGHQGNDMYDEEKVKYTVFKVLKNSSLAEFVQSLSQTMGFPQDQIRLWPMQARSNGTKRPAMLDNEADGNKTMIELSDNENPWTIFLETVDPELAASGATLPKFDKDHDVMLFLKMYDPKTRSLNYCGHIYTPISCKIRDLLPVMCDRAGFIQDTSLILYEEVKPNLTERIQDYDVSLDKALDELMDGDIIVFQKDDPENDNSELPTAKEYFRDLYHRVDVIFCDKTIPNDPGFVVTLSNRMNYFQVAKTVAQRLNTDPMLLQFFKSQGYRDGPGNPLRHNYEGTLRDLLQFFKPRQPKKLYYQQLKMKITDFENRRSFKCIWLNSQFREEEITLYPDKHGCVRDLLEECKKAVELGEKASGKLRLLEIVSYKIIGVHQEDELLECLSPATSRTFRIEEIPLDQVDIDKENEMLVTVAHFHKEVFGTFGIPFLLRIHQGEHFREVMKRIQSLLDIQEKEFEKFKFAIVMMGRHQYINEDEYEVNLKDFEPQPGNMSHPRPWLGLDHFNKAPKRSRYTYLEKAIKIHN
row,Compound,IC50
1,"3-((7-(3-(3,3-difluoroazetidine-1-carbonyl)-4,6-dimethylpyridin-2-yl)thieno[3,2-b]pyridin-2-yl)methyl)-6,6-dimethyl-3-azabicyclo[3.1.0]hexane-2,4-dione hydrochloride [Example 85]",1000 to 10000 nM
2,"6,6-dimethyl-3-((7-(2-methyl-3-(pyrrolidin-3-ylamino)-6-(trifluoromethyl)pyridin-4-yl)thieno[3,2-b]pyridin-2-yl)methyl)-3-azabicyclo[3.1.0]hexane-2,4-dione 2,2,2-trifluoroacetate [Example 25]",< 500 nM
3,"6,6-dimethyl-3-((7-(2-methyl-3-(pyrrolidin-3-ylmethyl)-6-(trifluoromethyl)pyridin-4-yl)thieno[3,2-b]pyridin-2-yl)methyl)-3-azabicyclo[3.1.0]hexane-2,4-dione 2,2,2-trifluoroacetate [Example 88]",< 500 nM
4,"6-(2-((6,6-dimethyl-2,4-dioxo-3-azabicyclo[3.1.0]hexan-3-yl)methyl)thieno[3,2-b]pyridin-7-yl)-4-methyl-5-((S)-2-methylpiperazine-1-carbonyl)picolinonitrile hydrochloride [Example 47]",< 500 nM
5,"Cc1cc(Cl)nc(-c2ccnc3cc(CN4C(=O)C5C(C4=O)C5(C)C)sc23)c1OC1CCCNC1 (racemic) [Example 3, 3-((7-(6-chloro-4-methyl-3-(piperidin-3-yloxy)pyridin-2-yl)thieno[3,2-b]pyridin-2-yl)methyl)-6,6-dimethyl-3-azabicyclo[3.1.0]hexane-2,4-dione hydrochloride]",< 500 nM
6,"Cc1nc(C(F)(F)F)cc(-c2ccnc3cc(CN4C(=O)C5C(C4=O)C5(C)C)sc23)c1CC1CNCCO1 (racemic) [Example 91, 6,6-dimethyl-3-((7-(2-methyl-3-(morpholin-2-ylmethyl)-6-(trifluoromethyl)pyridin-4-yl)thieno[3,2-b]pyridin-2-yl)methyl)-3-azabicyclo[3.1.0]hexane-2,4-dione 2,2,2-trifluoroacetate]",< 500 nM
7,"Cc1cc(C)c(NC2CCNC2)c(-c2ccnc3cc(CN4C(=O)C5C(C4=O)C5(C)C)sc23)n1 (racemic) [Example 124, 3-((7-(4,6-dimethyl-3-(pyrrolidin-3-ylamino)pyridin-2-yl)thieno[3,2-b]pyridin-2-yl)methyl)-6,6-dimethyl-3-azabicyclo[3.1.0]hexane-2,4-dione 2,2,2-trifluoroacetate]",< 500 nM
8,"Cc1cc(C(F)(F)F)nc(-c2ccnc3cc(CN4C(=O)C5C(C4=O)C5(C)C)sc23)c1C(=O)N1CCC(C)(N)C1 (racemic) [Example 137, 3-((7-(3-(3-amino-3-methylpyrrolidine-1-carbonyl)-4-methyl-6-(trifluoromethyl)pyridin-2-yl)thieno[3,2-b]pyridin-2-yl)methyl)-6,6-dimethyl-3-azabicyclo[3.1.0]hexane-2,4-dione trihydrochloride]",500 to 1000 nM
9,"Cc1cc(C(F)(F)F)nc(-c2ccnc3cc(CN4C(=O)C5C(C4=O)C5(C)C)sc23)c1C(=O)N1CCC(CNC(C)C)C1 (racemic) [Example 140, 3-((7-(3-(3-((isopropylamino)methyl)pyrrolidine-1-carbonyl)-4-methyl-6-(trifluoromethyl)pyridin-2-yl)thieno[3,2-b]pyridin-2-yl)methyl)-6,6-dimethyl-3-azabicyclo[3.1.0]hexane-2,4-dione trihydrochloride]",< 500 nM
10,"Cc1ccnc(-c2ccnc3cc(CN4C(=O)C5C(C4=O)C5(C)C)sc23)c1C(O)[C@@H]1CNCCO1 (single isomer, unassigned) [Example 100, 2,2,2-trifluoroacetate]",1000 to 10000 nM
11,"Cc1cc(C#N)nc(-c2ccnc3cc(CN4C(=O)C5C(C4=O)C5(C)C)sc23)c1OC1CCCNC1 (stereo not drawn) [Example 1, 6-(2-((6,6-dimethyl-2,4-dioxo-3-azabicyclo[3.1.0]hexan-3-yl)methyl)thieno[3,2-b]pyridin-7-yl)-4-methyl-5-(piperidin-3-yloxy)picolinonitrile 2,2,2-trifluoroacetate]",< 500 nM
12,"Cc1nc(C#N)cc(-c2ccnc3cc(CN4C(=O)C5C(C4=O)C5(C)C)sc23)c1C(=O)N1CCNC[C@@H]1C (stereo partly drawn) [Example 5, 4-(2-((6,6-dimethyl-2,4-dioxo-3-azabicyclo[3.1.0]hexan-3-yl)methyl)thieno[3,2-b]pyridin-7-yl)-6-methyl-5-((S)-2-methylpiperazine-1-carbonyl)picolinonitrile 2,2,2-trifluoroacetate]",< 500 nM

# Further lines, results first:
row,IC50,Compound
1,< 500 nM,"Cc1cc(Cl)nc(-c2ccnc3cc(CN4C(=O)C5C(C4=O)C5(C)C)sc23)c1OC1CCNC1 (racemic) [Example 2, 3-((7-(6-chloro-4-methyl-3-(pyrrolidin-3-yloxy)pyridin-2-yl)thieno[3,2-b]pyridin-2-yl)methyl)-6,6-dimethyl-3-azabicyclo[3.1.0]hexane-2,4-dione hydrochloride]"
2,< 500 nM,"Cc1nc(C(F)(F)F)cc(-c2ccnc3cc(CN4C(=O)C5C(C4=O)C5(C)C)sc23)c1OC1CCNC1 (racemic) [Example 21, 6,6-dimethyl-3-((7-(2-methyl-3-(pyrrolidin-3-yloxy)-6-(trifluoromethyl)pyridin-4-yl)thieno[3,2-b]pyridin-2-yl)methyl)-3-azabicyclo[3.1.0]hexane-2,4-dione 2,2,2-trifluoroacetate]"
3,< 500 nM,"Cc1cc(C(F)(F)F)nc(-c2ccnc3cc(CN4C(=O)C5C(C4=O)C5(C)C)sc23)c1CC1CNCCN1 (racemic) [Example 35, 6,6-dimethyl-3-((7-(4-methyl-3-(piperazin-2-ylmethyl)-6-(trifluoromethyl)pyridin-2-yl)thieno[3,2-b]pyridin-2-yl)methyl)-3-azabicyclo[3.1.0]hexane-2,4-dione hydrochloride]"
4,1000 to 10000 nM,"Cc1nc(C(F)(F)F)cc(-c2ccnc3cc(CN4C(=O)C5C(C4=O)C5(C)C)sc23)c1NC(=O)C1CCNC1 (racemic) [Example 64, N-(4-(2-((6,6-dimethyl-2,4-dioxo-3-azabicyclo[3.1.0]hexan-3-yl)methyl)thieno[3,2-b]pyridin-7-yl)-2-methyl-6-(trifluoromethyl)pyridin-3-yl)pyrrolidine-3-carboxamide 2,2,2-trifluoroacetate]"
5,> 10000 nM,"Cc1nc(C(F)(F)F)cc(-c2ccnc3cc(CN4C(=O)C5C(C4=O)C5(C)C)sc23)c1NC(=O)C1CCN(C(=O)C(F)(F)F)C1 (racemic) [Example 65, N-(4-(2-((6,6-dimethyl-2,4-dioxo-3-azabicyclo[3.1.0]hexan-3-yl)methyl)thieno[3,2-b]pyridin-7-yl)-2-methyl-6-(trifluoromethyl)pyridin-3-yl)-1-(2,2,2-trifluoroacetyl)pyrrolidine-3-carboxamide 2,2,2-trifluoroacetate]"
6,< 500 nM,"Cc1cc(C(F)(F)F)nc(-c2ccnc3cc(CN4C(=O)C5C(C4=O)C5(C)C)sc23)c1C(=O)N1CCC2CNCC21 (racemic) [Example 72, 6,6-dimethyl-3-((7-(4-methyl-3-(octahydropyrrolo[3,4-b]pyrrole-1-carbonyl)-6-(trifluoromethyl)pyridin-2-yl)thieno[3,2-b]pyridin-2-yl)methyl)-3-azabicyclo[3.1.0]hexane-2,4-dione dihydrochloride]"
7,< 500 nM,"Cc1cc(C(F)(F)F)nc(-c2ccnc3cc(CN4C(=O)C5C(C4=O)C5(C)C)sc23)c1CC1CNCCO1 (racemic) [Example 92, 6,6-dimethyl-3-((7-(4-methyl-3-(morpholin-2-ylmethyl)-6-(trifluoromethyl)pyridin-2-yl)thieno[3,2-b]pyridin-2-yl)methyl)-3-azabicyclo[3.1.0]hexane-2,4-dione 2,2,2-trifluoroacetate]"
8,< 500 nM,"Cc1nc(Cl)cc(-c2ccnc3cc(CN4C(=O)C5C(C4=O)C5(C)C)sc23)c1NC1CCNC1 (racemic) [Example 125, 3-((7-(6-chloro-2-methyl-3-(pyrrolidin-3-ylamino)pyridin-4-yl)thieno[3,2-b]pyridin-2-yl)methyl)-6,6-dimethyl-3-azabicyclo[3.1.0]hexane-2,4-dione 2,2,2-trifluoroacetate]"
9,< 500 nM,"Cc1cc(Cl)nc(-c2ccnc3cc(CN4C(=O)C5C(C4=O)C5(C)C)sc23)c1NC1CCCNC1 (racemic) [Example 129, 3-((7-(6-chloro-4-methyl-3-(piperidin-3-ylamino)pyridin-2-yl)thieno[3,2-b]pyridin-2-yl)methyl)-6,6-dimethyl-3-azabicyclo[3.1.0]hexane-2,4-dione tetrahydrochloride]"
10,< 500 nM,"Cc1cc(C(F)(F)F)nc(-c2ccnc3cc(CN4C(=O)C5C(C4=O)C5(C)C)sc23)c1C(=O)N1CCC(CN)C1 (racemic) [Example 139, 3-((7-(3-(3-(aminomethyl)pyrrolidine-1-carbonyl)-4-methyl-6-(trifluoromethyl)pyridin-2-yl)thieno[3,2-b]pyridin-2-yl)methyl)-6,6-dimethyl-3-azabicyclo[3.1.0]hexane-2,4-dione trihydrochloride]"
11,< 500 nM,"Cc1cc(C(F)(F)F)nc(-c2ccnc3cc(CN4C(=O)N(C)C5(CC5)C4=O)sc23)c1NC1CCNC1 (racemic) [Example 145, 4-methyl-6-((7-(4-methyl-3-(pyrrolidin-3-ylamino)-6-(trifluoromethyl)pyridin-2-yl)thieno[3,2-b]pyridin-2-yl)methyl)-4,6-diazaspiro[2.4]heptane-5,7-dione dihydrochloride]"
12,< 500 nM,"Cc1cc(Cl)nc(-c2ccnc3cc(CN4C(=O)C5C(C4=O)C5(C)C)sc23)c1O[C@H]1CCCNC1 (single isomer, unassigned) [Example 4, hydrochloride]"
